The target of one experiment is T1, Human Calpain 1/NS1 (Homo sapiens, UniProt P07384).
T1 sequence (P07384 1-714): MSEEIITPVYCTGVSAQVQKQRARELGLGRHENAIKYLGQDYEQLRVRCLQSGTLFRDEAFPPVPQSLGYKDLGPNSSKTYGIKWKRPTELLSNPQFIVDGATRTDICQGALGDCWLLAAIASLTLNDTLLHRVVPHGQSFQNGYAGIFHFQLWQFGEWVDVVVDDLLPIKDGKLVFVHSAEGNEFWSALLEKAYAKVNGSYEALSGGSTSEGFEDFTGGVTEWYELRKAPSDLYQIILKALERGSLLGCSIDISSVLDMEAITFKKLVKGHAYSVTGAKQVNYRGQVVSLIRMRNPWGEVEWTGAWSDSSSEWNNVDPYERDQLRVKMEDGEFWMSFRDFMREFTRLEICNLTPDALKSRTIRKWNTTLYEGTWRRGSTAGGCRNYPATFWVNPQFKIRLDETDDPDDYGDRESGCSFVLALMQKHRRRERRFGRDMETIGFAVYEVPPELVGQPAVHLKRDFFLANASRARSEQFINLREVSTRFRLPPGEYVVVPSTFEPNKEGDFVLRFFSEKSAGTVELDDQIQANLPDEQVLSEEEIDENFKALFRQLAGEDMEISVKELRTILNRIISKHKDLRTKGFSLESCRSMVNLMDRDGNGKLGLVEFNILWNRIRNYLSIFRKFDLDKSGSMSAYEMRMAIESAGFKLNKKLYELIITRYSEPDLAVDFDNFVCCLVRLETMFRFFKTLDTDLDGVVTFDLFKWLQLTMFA
T1 sequence (P04632 1-268 partner): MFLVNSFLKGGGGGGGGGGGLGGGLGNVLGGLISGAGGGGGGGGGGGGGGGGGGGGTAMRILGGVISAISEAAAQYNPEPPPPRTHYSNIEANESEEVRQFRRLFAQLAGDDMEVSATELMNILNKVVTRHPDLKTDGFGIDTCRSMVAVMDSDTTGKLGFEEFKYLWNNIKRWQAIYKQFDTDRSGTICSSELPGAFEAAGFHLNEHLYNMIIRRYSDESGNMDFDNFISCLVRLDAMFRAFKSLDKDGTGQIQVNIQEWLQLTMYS
In words: Calpain inhibition continuous fluorescence (FRET) assay, Human Calpain 1/NS1. It counts as biochemical. Particulars: read-out: Human Calpain 1/NS1 IC50. Put shortly: (§1)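 Human calpains 1, 2 and 9 preincubated with inhibitor at 25 °C in 50 mM Tris pH 7.5, 100 mM NaCl, 1 mM DTT; reaction started with 5-FAM/QXL 520 FRET peptide plus CaCl2 for activation. Fluorescence (490/520 nm) followed 10 min; rates from 1-5 min slopes fitted to 4-parameter logistic for IC50.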

Another experiment addresses T2, Human Calpain 2/NS1 (Homo sapiens, UniProt P17655).
T2 sequence (P17655 1-700): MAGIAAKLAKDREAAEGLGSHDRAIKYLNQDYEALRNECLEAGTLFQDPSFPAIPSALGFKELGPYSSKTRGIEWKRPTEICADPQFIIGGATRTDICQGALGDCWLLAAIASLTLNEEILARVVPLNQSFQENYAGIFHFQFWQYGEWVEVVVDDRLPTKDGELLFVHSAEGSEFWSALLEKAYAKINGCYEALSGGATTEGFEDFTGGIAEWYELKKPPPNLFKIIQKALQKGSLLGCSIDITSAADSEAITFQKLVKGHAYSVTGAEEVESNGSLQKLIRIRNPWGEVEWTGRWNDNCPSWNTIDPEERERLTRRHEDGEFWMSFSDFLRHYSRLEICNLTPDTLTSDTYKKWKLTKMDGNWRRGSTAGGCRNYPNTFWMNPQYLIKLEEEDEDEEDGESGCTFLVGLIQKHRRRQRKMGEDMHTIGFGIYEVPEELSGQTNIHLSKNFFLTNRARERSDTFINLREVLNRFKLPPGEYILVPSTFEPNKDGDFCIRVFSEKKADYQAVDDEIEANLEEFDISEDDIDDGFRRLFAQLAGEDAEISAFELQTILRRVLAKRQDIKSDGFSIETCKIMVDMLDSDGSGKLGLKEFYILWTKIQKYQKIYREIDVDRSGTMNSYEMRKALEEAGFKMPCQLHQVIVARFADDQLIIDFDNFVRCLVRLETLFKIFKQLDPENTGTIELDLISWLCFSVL
T2 sequence (P04632 1-268 partner): T1 sequence (P04632 1-268 partner)
Description: Calpain inhibition continuous fluorescence (FRET) assay, Human Calpain 2/NS1. Type of experiment: biochemical. To be noted: read-out: Human Calpain 2/NS1 IC50. A digest of the protocol:
as §1

Another experiment deals with T3, Human Calpain 9/NS1 (Homo sapiens, UniProt O14815).
T3 sequence (O14815 1-690): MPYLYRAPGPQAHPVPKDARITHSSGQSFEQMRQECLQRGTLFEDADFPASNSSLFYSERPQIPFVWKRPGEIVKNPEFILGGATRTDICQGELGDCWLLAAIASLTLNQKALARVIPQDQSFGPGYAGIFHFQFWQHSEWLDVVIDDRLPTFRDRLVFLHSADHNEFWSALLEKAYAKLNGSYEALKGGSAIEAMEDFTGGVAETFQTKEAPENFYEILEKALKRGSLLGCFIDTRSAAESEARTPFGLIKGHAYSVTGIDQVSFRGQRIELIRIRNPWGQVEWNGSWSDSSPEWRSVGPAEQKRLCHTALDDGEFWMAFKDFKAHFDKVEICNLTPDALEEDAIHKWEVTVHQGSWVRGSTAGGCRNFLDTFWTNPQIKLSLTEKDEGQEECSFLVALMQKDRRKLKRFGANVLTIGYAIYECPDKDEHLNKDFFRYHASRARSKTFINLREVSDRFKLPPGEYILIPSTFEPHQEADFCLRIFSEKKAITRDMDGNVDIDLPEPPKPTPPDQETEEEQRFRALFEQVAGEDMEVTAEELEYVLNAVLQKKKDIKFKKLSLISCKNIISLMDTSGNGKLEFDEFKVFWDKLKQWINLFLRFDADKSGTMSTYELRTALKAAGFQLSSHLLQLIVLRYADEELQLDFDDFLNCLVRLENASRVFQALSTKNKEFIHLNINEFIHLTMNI
T3 sequence (P04632 1-268 partner): T1 sequence (P04632 1-268 partner)
Description: Calpain inhibition continuous fluorescence (FRET) assay, Human Calpain 9/NS1. It counts as biochemical. Particulars: read-out: Human Calpain 9/NS1 IC50. A digest of the protocol:
as §1

Experiment [1] relates to Calpain activity in SH-SY5Y cells (SBDP-150). In words: SH-SY5Y Spectrin western blot assay (SBDP-150 breakdown product, A23187-induced). Type of experiment: cell-based. Particulars: SH-SY5Y cells, read-out: SH-SY5Y Spectrin IC50. For orientation: Immunoblotting shows a protein as a band on a membrane.
Experiment [2] relates to Calpain activity in SH-SY5Y cells. Description: SH-SY5Y + AMC fluorescence assay (Suc-LLVY-AMC substrate). Type of experiment: cell-based. To be noted: read-out: SH-SY5Y + AMC IC50.
[3] abbreviates: Homo sapiens, A23187-induced SBDP-150, western blot.
Where [4] appears, read: Homo sapiens, Column D, A23187-induced SBDP-150.

Read-outs that look alike come from different tables or passages of the source. Some results are limits rather than exact numbers.

On to `Cc1cc(C(=O)N[C@H](C=O)Cc2ccccc2)n(-c2ncccn2)n1` [Compound 341, (S)-3-methyl-N-(1-oxo-3-phenylpropan-2-yl)-1-(pyrimidin-2-yl)-1H-pyrazole-5-carboxamide], for which the IC50 was below 3 µM at Human Calpain 1/NS1; below 3 µM on Human Calpain 2/NS1; 3 to 10 µM on Human Calpain 9/NS1; above 25 µM in experiment [1] (setting [3]); 10 to 25 µM in experiment [2].
Consider `NC(=O)C(=O)[C@H](Cc1ccccc1)NC(=O)c1nnsc1-c1ccccc1` [Compound 28, (S)—N-(4-amino-3,4-dioxo-1-phenylbutan-2-yl)-5-phenyl-1,2,3-thiadiazole-4-carboxamide], for which the IC50 at Human Calpain 1/NS1 (Column A) is below 3 µM; on Human Calpain 2/NS1 (Column B) it was below 3 µM; on Human Calpain 9/NS1 (Column C), below 3 µM; in experiment [1] (setting [4]), below 10 µM; in experiment [2] (Column E) it was below 10 µM.
Take `NC(=O)C(=O)C(Cc1ccccc1)NC(=O)c1cn(C(F)(F)F)nc1-c1ccccc1` (centres unmarked) [Compound 489, N-(4-amino-3,4-dioxo-1-phenylbutan-2-yl)-3-phenyl-1-(trifluoromethyl)-1H-pyrazole-4-carboxamide]: the IC50 at Human Calpain 1/NS1 is below 3 µM; on Human Calpain 2/NS1, below 3 µM; on Human Calpain 9/NS1 it was below 3 µM; in experiment [1] (setting [3]) it was 10 to 25 µM; in experiment [2], 10 to 25 µM.
As for `Cc1cc(C(=O)N[C@@H](Cc2ccccc2)C(=O)C(N)=O)n(-c2ccncn2)n1` [Compound 245, (S)—N-(4-amino-3,4-dioxo-1-phenylbutan-2-yl)-3-methyl-1-(pyrimidin-4-yl)-1H-pyrazole-5-carboxamide], the IC50 at Human Calpain 1/NS1 (Column A) was below 3 µM; on Human Calpain 2/NS1 (Column B), below 3 µM; on Human Calpain 9/NS1 (Column C), below 3 µM; in experiment [1] (setting [4]), 10 to 25 µM; in experiment [2] (Column E), below 10 µM.
Take `Cn1cc(C(=O)N[C@@H](Cc2ccccc2)C(=O)C(N)=O)c(-c2ccncc2)n1` [Compound 170, (S)—N-(4-amino-3,4-dioxo-1-phenylbutan-2-yl)-1-methyl-3-(pyridin-4-yl)-1H-pyrazole-4-carboxamide]: the IC50 is below 3 µM at Human Calpain 1/NS1 (Column A); below 3 µM on Human Calpain 2/NS1 (Column B); below 3 µM at Human Calpain 9/NS1 (Column C); above 25 µM in experiment [1] (setting [4]); above 25 µM in experiment [2] (Column E).
For the compound `Cc1cc(C(=O)NC(Cc2ccccc2)C(=O)C(N)=O)n(-c2ccc(Oc3ccccc3)cc2)n1` (centres unmarked) [Compound 439, N-(4-Amino-3,4-dioxo-1-phenylbutan-2-yl)-3-methyl-1-(4-phenoxyphenyl)-1H-pyrazole-5-carboxamide], the IC50 at Human Calpain 1/NS1 is below 3 µM; at Human Calpain 2/NS1 it was below 3 µM; at Human Calpain 9/NS1 it was below 3 µM; in experiment [1] (setting [3]), below 10 µM; in experiment [2], above 25 µM.
As to `Cn1ncc(C(=O)N[C@@H](Cc2ccccc2)C(=O)C(N)=O)c1-c1ccccn1` [Compound 164, (S)—N-(4-amino-3,4-dioxo-1-phenylbutan-2-yl)-1-methyl-5-(pyridin-2-yl)-1H-pyrazole-4-carboxamide], the IC50 on Human Calpain 1/NS1 (Column A) was below 3 µM; on Human Calpain 2/NS1 (Column B) it was below 3 µM; at Human Calpain 9/NS1 (Column C) it was below 3 µM; in experiment [1] (setting [4]) it was above 25 µM; in experiment [2] (Column E), above 25 µM.
Consider `CCCC[C@H](NC(=O)c1cn(C)nc1-c1ccccc1)C(=O)C(N)=O` [Compound 419, (S)—N-(1-amino-1,2-dioxoheptan-3-yl)-1-methyl-3-phenyl-1H-pyrazole-4-carboxamide], for which the IC50 on Human Calpain 1/NS1 was below 3 µM; on Human Calpain 2/NS1, below 3 µM; at Human Calpain 9/NS1, below 3 µM; in experiment [1] (setting [3]), 10 to 25 µM; in experiment [2], above 25 µM.
`Cc1nc(-c2cccc(F)c2)c(C(=O)N[C@H](C=O)Cc2ccccc2)o1` [Compound 353, (S)-4-(3-fluorophenyl)-2-methyl-N-(1-oxo-3-phenylpropan-2-yl)oxazole-5-carboxamide]: the IC50 is below 3 µM at Human Calpain 1/NS1; below 3 µM at Human Calpain 2/NS1; below 3 µM at Human Calpain 9/NS1; 10 to 25 µM in experiment [1] (setting [3]); above 25 µM in experiment [2].
Regarding `Cc1ccc(-c2ccc(-n3nc(C)cc3C(=O)N[C@@H](Cc3ccccc3)C(=O)C(N)=O)cc2)cc1` [Compound 130], the IC50 on Human Calpain 1/NS1 (Column A) was below 3 µM; at Human Calpain 2/NS1 (Column B), below 3 µM; on Human Calpain 9/NS1 (Column C), below 3 µM; in experiment [1] (setting [4]), below 10 µM; in experiment [2] (Column E) it was above 25 µM.
In the case of “N-(4-amino-3,4-dioxo-1-phenylbutan-2-yl)-3-(5-fluoropyridin-3-yl)-1-methyl-1H-pyrazole-4-carboxamide [Compound 506]”, the IC50 on Human Calpain 1/NS1 was below 3 µM; at Human Calpain 2/NS1, below 3 µM; at Human Calpain 9/NS1 it was below 3 µM; in experiment [1] (A23187-induced SBDP-150, western blot), 10 to 25 µM; in experiment [2], 10 to 25 µM.
With `NC(=O)C(=O)C(Cc1ccccc1)NC(=O)c1cc(Br)nn1-c1ncccn1` (centres unmarked) [Compound 497, N-(4-amino-3,4-dioxo-1-phenylbutan-2-yl)-3-bromo-1-(pyrimidin-2-yl)-1H-pyrazole-5-carb oxamide], the IC50 at Human Calpain 1/NS1 is below 3 µM; on Human Calpain 2/NS1, below 3 µM; on Human Calpain 9/NS1, below 3 µM; in experiment [1] (setting [3]) it was 10 to 25 µM; in experiment [2], below 10 µM.
With `Cn1cc(C(=O)NC(Cc2ccccc2)C(=O)C(N)=O)c(-c2ccc3c(c2)OCO3)n1` (centres unmarked) [Compound 567, N-(4-amino-3,4-dioxo-1-phenylbutan-2-yl)-3-(benzo[d][1,3]dioxol-5-yl)-1-methyl-1H-pyrazole-4-carboxamide], the IC50 was below 3 µM on Human Calpain 1/NS1; below 3 µM at Human Calpain 2/NS1; below 3 µM at Human Calpain 9/NS1; below 10 µM in experiment [1] (setting [3]); below 10 µM in experiment [2].
